Reference: publication PMC6978363, “Chaperone mediated detection of small molecule target binding in cells” (Nature Communications, 2020)

Experiments:
Experiment in all cases: biochemical
Details in all cases: read-out: % Inhibition (at 10mM)
p38_alpha(direct) = target: T1, p38_alpha(direct) (Homo sapiens, UniProt Q16539)
T1 construct: gene MAPK14; direct

MSK1 = target: T2, MSK1 (Homo sapiens, UniProt O75582)
T2 construct: gene RPS6KA5

PIM2 = PIM2 (Homo sapiens, UniProt Q9P1W9)
CK1_gamma3 = target: T3, CK1_gamma3 (Homo sapiens, UniProt Q9Y6M4)
T3 construct: gene CSNK1G3

MLK1 = target: T4, MLK1 (Homo sapiens, UniProt P80192)
T4 construct: gene MAP3K9

CamKII_alpha = target: T5, CamKII_alpha (Homo sapiens, UniProt Q9UQM7)
T5 construct: gene CAMK2A

MST2 = target: T6, MST2 (Homo sapiens, UniProt Q13188)
T6 construct: gene STK3

Bmx = Bmx (Homo sapiens, UniProt P51813)
PLK2 = PLK2 (Homo sapiens, UniProt Q9NYY3)
CDK5/p25 = target: T7, CDK5/p25 (Homo sapiens, UniProt Q00535)
T7 construct: p25

CamK1_gamma = target: T8, CamK1_gamma (Homo sapiens, UniProt Q96NX5)
T8 construct: gene CAMK1G

PAK4 = PAK4 (Homo sapiens, UniProt O96013)
SGK2 = SGK2 (Homo sapiens, UniProt Q9HBY8)
PKC_iota = target: T9, PKC_iota (Homo sapiens, UniProt P41743)
T9 construct: gene PRKCI

PKD3 = target: T10, PKD3 (Homo sapiens, UniProt O94806)
T10 construct: gene PRKD3

HIPK2 = HIPK2 (Homo sapiens, UniProt Q9H2X6)
p70S6K = target: T11, p70S6K (Homo sapiens, UniProt P23443)
T11 construct: gene RPS6KB1

EphA1 = EphA1 (Homo sapiens, UniProt P21709)
FAK2 = target: T12, FAK2 (Homo sapiens, UniProt Q14289)
T12 construct: gene PTK2B

TXK = TXK (Homo sapiens, UniProt P42681)
EphA4 = EphA4 (Homo sapiens, UniProt P54764)
RSK1 = target: T13, RSK1 (Homo sapiens, UniProt Q15418)
T13 construct: gene RPS6KA1

CDK5/p35 = target: T14, CDK5/p35 (Homo sapiens, UniProt Q00535)
T14 construct: p35

CK1_delta = target: T15, CK1_delta (Homo sapiens, UniProt P48730)
T15 construct: gene CSNK1D

PAK7 = target: T16, PAK7 (Homo sapiens, UniProt Q9P286)
T16 construct: gene PAK5

PIM1 = PIM1 (Homo sapiens, UniProt P11309)
CLK2 = CLK2 (Homo sapiens, UniProt P49760)
DCAMKL1 = target: T17, DCAMKL1 (Homo sapiens, UniProt O15075)
T17 construct: gene DCLK1

CK1_alpha1 = target: T18, CK1_alpha1 (Homo sapiens, UniProt P48729)
T18 construct: gene CSNK1A1

GRK6 = GRK6 (Homo sapiens, UniProt P43250)
EphA5 = EphA5 (Homo sapiens, UniProt P54756)
EphA8 = EphA8 (Homo sapiens, UniProt P29322)
FGFR2 = FGFR2 (Homo sapiens, UniProt P21802)
AKT1 = AKT1 (Homo sapiens, UniProt P31749)
NEK6 = NEK6 (Homo sapiens, UniProt Q9HC98)
CDKL5 = CDKL5 (Homo sapiens, UniProt O76039)
Srm = target: T19, Srm (Homo sapiens, UniProt Q9H3Y6)
T19 construct: gene SRMS

ZIPK = target: T20, ZIPK (Homo sapiens, UniProt O43293)
T20 construct: gene DAPK3

T10 sequence (O94806 whole entry): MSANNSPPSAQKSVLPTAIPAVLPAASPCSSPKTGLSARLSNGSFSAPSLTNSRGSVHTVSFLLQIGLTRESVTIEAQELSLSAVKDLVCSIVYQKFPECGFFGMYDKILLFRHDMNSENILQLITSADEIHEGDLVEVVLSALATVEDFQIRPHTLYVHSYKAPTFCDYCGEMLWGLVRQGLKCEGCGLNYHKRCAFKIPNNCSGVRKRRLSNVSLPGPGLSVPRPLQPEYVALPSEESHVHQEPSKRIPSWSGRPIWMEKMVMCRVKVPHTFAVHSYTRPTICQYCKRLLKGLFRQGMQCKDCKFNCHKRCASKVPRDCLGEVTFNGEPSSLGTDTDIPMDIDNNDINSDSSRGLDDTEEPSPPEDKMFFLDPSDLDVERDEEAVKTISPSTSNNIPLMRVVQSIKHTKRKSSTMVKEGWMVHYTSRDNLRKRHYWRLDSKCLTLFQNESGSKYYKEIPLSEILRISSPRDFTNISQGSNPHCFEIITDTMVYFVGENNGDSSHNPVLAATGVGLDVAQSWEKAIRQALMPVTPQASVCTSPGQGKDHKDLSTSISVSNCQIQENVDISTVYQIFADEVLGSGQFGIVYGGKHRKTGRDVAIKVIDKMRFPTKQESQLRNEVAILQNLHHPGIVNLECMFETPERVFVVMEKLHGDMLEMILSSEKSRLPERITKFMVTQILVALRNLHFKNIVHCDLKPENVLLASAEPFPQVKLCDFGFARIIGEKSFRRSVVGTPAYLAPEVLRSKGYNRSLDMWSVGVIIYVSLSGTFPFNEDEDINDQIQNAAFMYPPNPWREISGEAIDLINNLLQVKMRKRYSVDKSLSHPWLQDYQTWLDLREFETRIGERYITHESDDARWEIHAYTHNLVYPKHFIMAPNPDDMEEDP
Chain of PIM2 (Q9P1W9 whole entry): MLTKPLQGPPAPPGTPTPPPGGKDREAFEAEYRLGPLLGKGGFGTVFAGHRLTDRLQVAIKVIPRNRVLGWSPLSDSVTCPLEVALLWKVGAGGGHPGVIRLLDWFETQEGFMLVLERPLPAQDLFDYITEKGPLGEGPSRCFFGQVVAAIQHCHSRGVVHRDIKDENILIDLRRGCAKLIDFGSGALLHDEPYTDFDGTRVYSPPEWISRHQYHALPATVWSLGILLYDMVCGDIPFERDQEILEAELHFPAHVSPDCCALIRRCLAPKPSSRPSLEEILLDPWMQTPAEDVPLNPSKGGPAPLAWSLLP
T13 sequence (Q15418 whole entry): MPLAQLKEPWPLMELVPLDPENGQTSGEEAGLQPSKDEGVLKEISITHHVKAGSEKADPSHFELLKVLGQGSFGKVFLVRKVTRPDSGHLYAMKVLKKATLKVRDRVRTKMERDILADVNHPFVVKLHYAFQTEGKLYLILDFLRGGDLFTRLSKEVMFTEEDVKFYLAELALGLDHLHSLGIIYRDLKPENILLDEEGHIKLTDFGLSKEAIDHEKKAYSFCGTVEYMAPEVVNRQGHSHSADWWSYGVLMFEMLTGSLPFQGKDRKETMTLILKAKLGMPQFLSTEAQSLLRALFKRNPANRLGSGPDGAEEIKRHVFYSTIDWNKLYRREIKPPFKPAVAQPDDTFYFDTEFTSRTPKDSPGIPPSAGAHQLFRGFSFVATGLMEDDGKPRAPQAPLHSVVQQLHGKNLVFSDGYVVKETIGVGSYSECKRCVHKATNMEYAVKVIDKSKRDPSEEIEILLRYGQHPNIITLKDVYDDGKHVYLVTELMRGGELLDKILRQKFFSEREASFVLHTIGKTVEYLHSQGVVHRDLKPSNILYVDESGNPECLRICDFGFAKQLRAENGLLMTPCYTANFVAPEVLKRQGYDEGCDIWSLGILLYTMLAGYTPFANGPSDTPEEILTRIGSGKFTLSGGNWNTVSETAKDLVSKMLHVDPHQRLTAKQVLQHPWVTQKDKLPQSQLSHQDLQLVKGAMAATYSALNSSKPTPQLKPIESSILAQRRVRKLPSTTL
Chain of EphA1 (P21709 whole entry): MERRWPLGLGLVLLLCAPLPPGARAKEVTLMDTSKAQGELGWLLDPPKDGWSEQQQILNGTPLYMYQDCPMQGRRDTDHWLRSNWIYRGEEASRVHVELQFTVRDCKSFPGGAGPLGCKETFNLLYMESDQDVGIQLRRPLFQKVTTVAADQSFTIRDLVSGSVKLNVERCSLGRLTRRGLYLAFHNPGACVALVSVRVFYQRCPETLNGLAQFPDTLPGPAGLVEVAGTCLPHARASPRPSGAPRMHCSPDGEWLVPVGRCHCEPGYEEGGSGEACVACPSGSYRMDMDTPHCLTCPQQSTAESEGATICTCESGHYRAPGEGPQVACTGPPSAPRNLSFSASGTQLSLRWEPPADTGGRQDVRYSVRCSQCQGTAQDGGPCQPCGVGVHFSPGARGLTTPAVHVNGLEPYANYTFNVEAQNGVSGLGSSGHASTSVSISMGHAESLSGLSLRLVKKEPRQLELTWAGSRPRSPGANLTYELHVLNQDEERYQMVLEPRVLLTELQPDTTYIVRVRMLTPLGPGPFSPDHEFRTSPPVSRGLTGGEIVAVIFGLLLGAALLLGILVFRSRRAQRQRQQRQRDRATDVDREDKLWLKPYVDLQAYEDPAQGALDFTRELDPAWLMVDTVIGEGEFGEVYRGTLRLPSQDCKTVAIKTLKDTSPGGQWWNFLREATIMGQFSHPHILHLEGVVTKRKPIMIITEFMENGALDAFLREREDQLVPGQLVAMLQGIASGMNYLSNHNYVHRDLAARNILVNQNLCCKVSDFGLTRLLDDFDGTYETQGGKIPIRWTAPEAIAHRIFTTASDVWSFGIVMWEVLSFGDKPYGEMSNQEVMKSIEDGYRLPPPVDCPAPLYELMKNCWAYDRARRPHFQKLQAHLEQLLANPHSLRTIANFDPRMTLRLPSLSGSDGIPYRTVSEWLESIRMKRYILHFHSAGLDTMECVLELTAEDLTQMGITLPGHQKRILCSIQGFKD
Chain of PAK4 (O96013 whole entry): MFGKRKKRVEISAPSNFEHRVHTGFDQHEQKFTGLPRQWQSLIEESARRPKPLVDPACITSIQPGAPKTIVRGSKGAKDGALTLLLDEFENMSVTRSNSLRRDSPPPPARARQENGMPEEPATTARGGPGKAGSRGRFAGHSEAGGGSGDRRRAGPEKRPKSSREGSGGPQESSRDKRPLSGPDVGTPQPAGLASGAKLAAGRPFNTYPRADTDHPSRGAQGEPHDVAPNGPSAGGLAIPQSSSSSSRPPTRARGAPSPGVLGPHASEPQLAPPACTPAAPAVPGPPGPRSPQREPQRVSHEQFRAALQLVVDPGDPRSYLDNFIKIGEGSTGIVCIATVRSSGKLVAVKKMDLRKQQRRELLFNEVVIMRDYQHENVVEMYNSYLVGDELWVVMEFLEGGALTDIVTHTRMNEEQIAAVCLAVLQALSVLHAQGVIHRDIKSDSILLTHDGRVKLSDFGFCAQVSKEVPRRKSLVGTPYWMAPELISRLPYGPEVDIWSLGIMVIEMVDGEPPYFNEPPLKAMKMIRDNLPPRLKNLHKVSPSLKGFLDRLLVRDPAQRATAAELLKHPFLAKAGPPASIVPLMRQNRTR
T18 sequence (P48729 whole entry): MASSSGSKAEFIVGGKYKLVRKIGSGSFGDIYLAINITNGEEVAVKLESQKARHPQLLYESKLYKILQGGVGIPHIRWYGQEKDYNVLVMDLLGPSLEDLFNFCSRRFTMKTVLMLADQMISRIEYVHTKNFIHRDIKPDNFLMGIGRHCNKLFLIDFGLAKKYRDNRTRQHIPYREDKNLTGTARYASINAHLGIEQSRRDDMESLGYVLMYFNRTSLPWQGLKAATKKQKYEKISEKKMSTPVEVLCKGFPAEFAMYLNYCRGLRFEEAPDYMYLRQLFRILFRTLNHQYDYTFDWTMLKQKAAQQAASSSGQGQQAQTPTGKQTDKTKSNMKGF
T14 sequence (Q00535 whole entry): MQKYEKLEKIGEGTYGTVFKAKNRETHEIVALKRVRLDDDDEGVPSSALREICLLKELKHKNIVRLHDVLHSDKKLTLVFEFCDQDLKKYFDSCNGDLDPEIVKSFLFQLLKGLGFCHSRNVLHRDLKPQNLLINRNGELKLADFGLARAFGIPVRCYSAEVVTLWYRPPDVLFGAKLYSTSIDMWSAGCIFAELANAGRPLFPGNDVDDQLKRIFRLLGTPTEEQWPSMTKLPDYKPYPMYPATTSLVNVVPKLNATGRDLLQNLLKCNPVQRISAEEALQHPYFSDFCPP
T14 sequence (Q15078 whole entry partner): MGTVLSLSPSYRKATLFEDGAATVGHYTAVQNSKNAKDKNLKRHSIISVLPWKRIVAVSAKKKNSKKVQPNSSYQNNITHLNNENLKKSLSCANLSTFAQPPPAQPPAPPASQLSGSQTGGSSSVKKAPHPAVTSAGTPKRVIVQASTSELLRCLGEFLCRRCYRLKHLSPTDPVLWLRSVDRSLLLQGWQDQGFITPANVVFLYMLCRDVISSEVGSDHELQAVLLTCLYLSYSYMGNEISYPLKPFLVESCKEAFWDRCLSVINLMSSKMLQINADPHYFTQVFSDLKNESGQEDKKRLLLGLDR
T7 sequence (Q00535 whole entry): as the sequence (Q00535 whole entry) above
T7 sequence (Q15078 whole entry partner): as the sequence (Q15078 whole entry partner) above

CC(C)(O)CC(=O)NCCn1ccc2ncnc(Nc3ccc(Oc4cccc(C(F)(F)F)c4)c(Cl)c3)c21 [TAK-285]
inhibition (p38_alpha(direct)): 4%
inhibition (MSK1): 2.5%
inhibition (PIM2): 5.5%
inhibition (CK1_gamma3): 2.5%
inhibition (MLK1): 6.5%
inhibition (CamKII_alpha): 2.5%
inhibition (MST2): 6%
inhibition (Bmx): 13.5%
inhibition (PLK2): 2.5%
inhibition (CDK5/p25): 8%
inhibition (CamK1_gamma): 10%
inhibition (PAK4): 5.5%
inhibition (SGK2): 3.5%
inhibition (PKC_iota): 8%
inhibition (PKD3): 31.5%
inhibition (HIPK2): 6%
inhibition (p70S6K): 7.5%
inhibition (EphA1): 7%
inhibition (FAK2): 4%
inhibition (TXK): 15%
inhibition (EphA4): 9%
inhibition (RSK1): 14.5%
inhibition (CDK5/p35): 3.5%
inhibition (CK1_delta): -1.5%
inhibition (PAK7): 5.5%
inhibition (PIM1): 5.5%
inhibition (CLK2): 18.5%
inhibition (DCAMKL1): -2.5%
inhibition (CK1_alpha1): 5.5%
inhibition (GRK6): -1.5%
inhibition (EphA5): 2%
inhibition (EphA8): 8%
inhibition (FGFR2): 2%
inhibition (AKT1): 1.5%
inhibition (NEK6): 6%
inhibition (CDKL5): 8.5%
inhibition (Srm): 13.5%
inhibition (ZIPK): 7%
